Test results from patent publication US20100267561A1, “HERBICIDAL PYRIDAZINONE DERIVATIVES” (priority 2007, published 2010).

Tests used:
Test in all cases: Test B pre-/postemergence plant response
Format in all cases: in vivo
[1] = system: common ragweed (Ambrosia elation); settings: for Ragweed plant response rating: 8 g ai/ha
Method in brief: (§1)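 Preemergence and postemergence (plants 2-18 cm, 1- to 4-leaf stage) applications used test chemicals in a non-phytotoxic solvent with surfactant. Plants were held in a greenhouse 13 to 15 days, then rated visually against controls on a 0-100 scale (0 no effect, 100 complete control).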

[2] = system: lambsquarters (Chenopodium album); settings: for Lambsquarters plant response rating: 8 g ai/ha
Method in brief: as §1

[3] = system: giant foxtail (Setaria faberii); settings: for Foxtail, Giant plant response rating: 8 g ai/ha
Method in brief: as §1

[4] = system: catchweed bedstraw (Galium aparine); settings: Preemergence
Method in brief: as §1

[5] = system: surinam grass (Brachiaria decumbens); settings: for Surinam Grass plant response rating: 8 g ai/ha
Method in brief: as §1

[6] = system: morningglory (Ipomoea coccinea); settings: for Morningglory plant response rating: 8 g ai/ha
Method in brief: as §1

[7] = system: pigweed (Amaranthus retroflexus); settings: for Pigweed plant response rating: 8 g ai/ha
Method in brief: as §1

corn (Zea mays) = settings: for Corn plant response rating: 8 g ai/ha
Method in brief: as §1

[8] = system: woolly cupgrass (Eriochloa villosa); settings: for Cupgrass, Woolly plant response rating: 8 g ai/ha
Method in brief: as §1

[9] = system: goosegrass (Eleusine indica); settings: for Goosegrass plant response rating: 8 g ai/ha
Method in brief: as §1

[10] = system: green foxtail (Setaria viridis); settings: for Foxtail, Green plant response rating: 8 g ai/ha
Method in brief: as §1

wild oat (Avena fatua) = settings: for Oat, Wild plant response rating: 8 g ai/ha
Method in brief: as §1

[11] = system: blackgrass (Alopecurus myosuroides)
Method in brief: as §1

[12] = system: downy bromegrass (Bromus tectorum); settings: for Bromegrass, Downy plant response rating: 8 g ai/ha
Method in brief: as §1

[13] = Postemergence, 16 g ai/ha, scale 0 to 100
[14] = Postemergence, 31 g ai/ha, scale 0 to 100, 0 no effect, 100 complete control
[15] = Postemergence, 62 g ai/ha, scale 0 to 100, 0 no effect, 100 complete control
[16] = Preemergence, 16 g ai/ha, scale 0 to 100 (0 no effect, 100 complete control)
[17] = Preemergence, 31 g ai/ha, 0 to 100 scale, 0 no effect, 100 complete control
[18] = Preemergence, 62 g ai/ha, scale 0 to 100

## Cc1cc(-c2ccc(Cl)cc2)nn1-c1c(OC(=O)c2cccc(Cl)c2)cnn(C)c1=O [Compound 32]
[1]; postemergence, 0-100 scale
  Ragweed plant response rating: 0
[1]; [13]
  Plant response rating, Ragweed: 0
[1]; [14]
  Plant response rating, Ragweed: 0
[1]; [15]
  Plant response rating, Ragweed: 0
[1]; [16]
  Plant response rating, Ragweed: 0
[1]; [17]
  Plant response rating, Ragweed: 0
[1]; [18]
  Plant response rating, Ragweed: 0
[1]; Preemergence, scale 0 to 100
  Ragweed plant response rating: 0
[2]; postemergence, 0-100 scale
  Lambsquarters plant response rating: 0
[2]; [13]
  Plant response rating, Lambsquarters: 0
[2]; [14]
  Plant response rating, Lambsquarters: 0
[2]; [15]
  Plant response rating, Lambsquarters: 0
[2]; [16]
  Plant response rating, Lambsquarters: 0
[2]; [17]
  Plant response rating, Lambsquarters: 0
[2]; [18]
  Plant response rating, Lambsquarters: 0
[2]; Preemergence, scale 0 to 100
  Lambsquarters plant response rating: 0
[3]; postemergence, 0-100 scale
  Foxtail, Giant plant response rating: 75
[3]; [13]
  Plant response rating, Foxtail, Giant: 80
[3]; [14]
  Plant response rating, Foxtail, Giant: 98
[3]; [15]
  Plant response rating, Foxtail, Giant: 100
[3]; [16]
  Plant response rating, Foxtail, Giant: 95
[3]; [17]
  Plant response rating, Foxtail, Giant: 100
[3]; [18]
  Plant response rating, Foxtail, Giant: 100
[3]; Preemergence, scale 0 to 100
  Foxtail, Giant plant response rating: 85
[4]; 16 g ai/ha, scale 0 to 100 (0 no effect, 100 complete control)
  Plant response rating, Galium: 0
[4]; 31 g ai/ha, 0 to 100 scale, 0 no effect, 100 complete control
  Plant response rating, Galium: 0
[4]; 62 g ai/ha, scale 0 to 100
  Plant response rating, Galium: 0
[4]; 8 g ai/ha, scale 0 to 100
  Galium plant response rating: 0
[5]; postemergence, 0-100 scale
  Surinam Grass plant response rating: 65
[5]; [13]
  Plant response rating, Surinam Grass: 70
[5]; [15]
  Plant response rating, Surinam Grass: 98
[5]; [16]
  Plant response rating, Surinam Grass: 75
[5]; [17]
  Plant response rating, Surinam Grass: 100
[5]; [18]
  Plant response rating, Surinam Grass: 100
[5]; Preemergence, scale 0 to 100
  Surinam Grass plant response rating: 70
[6]; postemergence, 0-100 scale
  Morningglory plant response rating: 0
[6]; [13]
  Plant response rating, Morningglory: 0
[6]; [14]
  Plant response rating, Morningglory: 0
[6]; [15]
  Plant response rating, Morningglory: 0
[6]; [16]
  Plant response rating, Morningglory: 0
[6]; [17]
  Plant response rating, Morningglory: 0
[6]; [18]
  Plant response rating, Morningglory: 0
[6]; Preemergence, scale 0 to 100
  Morningglory plant response rating: 0
[7]; postemergence, 0-100 scale
  Pigweed plant response rating: 0
[7]; [13]
  Plant response rating, Pigweed: 0
[7]; [14]
  Plant response rating, Pigweed: 0
[7]; [15]
  Plant response rating, Pigweed: 0
[7]; [16]
  Plant response rating, Pigweed: 0
[7]; [17]
  Plant response rating, Pigweed: 0
[7]; [18]
  Plant response rating, Pigweed: 0
[7]; Preemergence, scale 0 to 100
  Pigweed plant response rating: 0
Corn (Zea mays); postemergence, 0-100 scale
  Corn plant response rating: 0
Corn (Zea mays); [13]
  Plant response rating, Corn: 0
Corn (Zea mays); [14]
  Plant response rating, Corn: 0
Corn (Zea mays); [15]
  Plant response rating, Corn: 0
Corn (Zea mays); [16]
  Plant response rating, Corn: 45
Corn (Zea mays); [17]
  Plant response rating, Corn: 60
Corn (Zea mays); [18]
  Plant response rating, Corn: 95
Corn (Zea mays); Preemergence, scale 0 to 100
  Corn plant response rating: 0
[8]; postemergence, 0-100 scale
  Cupgrass, Woolly plant response rating: 75
[8]; [13]
  Plant response rating, Cupgrass, Woolly: 85
[8]; [14]
  Plant response rating, Cupgrass, Woolly: 100
[8]; [15]
  Plant response rating, Cupgrass, Woolly: 100
[8]; [16]
  Plant response rating, Cupgrass, Woolly: 70
[8]; [17]
  Plant response rating, Cupgrass, Woolly: 80
[8]; [18]
  Plant response rating, Cupgrass, Woolly: 85
[8]; Preemergence, scale 0 to 100
  Cupgrass, Woolly plant response rating: 55
[9]; postemergence, 0-100 scale
  Goosegrass plant response rating: 0
[9]; [13]
  Plant response rating, Goosegrass: 65
[9]; [14]
  Plant response rating, Goosegrass: 70
[9]; [15]
  Plant response rating, Goosegrass: 70
[9]; [16]
  Plant response rating, Goosegrass: 98
[9]; [17]
  Plant response rating, Goosegrass: 98
[9]; [18]
  Plant response rating, Goosegrass: 100
[9]; Preemergence, scale 0 to 100
  Goosegrass plant response rating: 60
[10]; postemergence, 0-100 scale
  Foxtail, Green plant response rating: 60
[10]; [13]
  Plant response rating, Foxtail, Green: 60
[10]; [14]
  Plant response rating, Foxtail, Green: 90
[10]; [15]
  Plant response rating, Foxtail, Green: 95
[10]; [16]
  Plant response rating, Foxtail, Green: 100
[10]; [17]
  Plant response rating, Foxtail, Green: 100
[10]; [18]
  Plant response rating, Foxtail, Green: 100
[10]; Preemergence, scale 0 to 100
  Foxtail, Green plant response rating: 70
Wild oat (Avena fatua); postemergence, 0-100 scale
  Oat, Wild plant response rating: 60
Wild oat (Avena fatua); [13]
  Plant response rating, Oat, Wild: 85
Wild oat (Avena fatua); [14]
  Plant response rating, Oat, Wild: 95
Wild oat (Avena fatua); [15]
  Plant response rating, Oat, Wild: 95
Wild oat (Avena fatua); [16]
  Plant response rating, Oat, Wild: 0
Wild oat (Avena fatua); [17]
  Plant response rating, Oat, Wild: 60
Wild oat (Avena fatua); [18]
  Plant response rating, Oat, Wild: 80
Wild oat (Avena fatua); Preemergence, scale 0 to 100
  Oat, Wild plant response rating: 0
[11]; 8 g ai/ha, postemergence, 0-100 scale
  Blackgrass plant response rating: 30
[11]; [13]
  Plant response rating, Blackgrass: 35
[11]; [14]
  Plant response rating, Blackgrass: 70
[11]; [15]
  Plant response rating, Blackgrass: 70
[11]; [16]
  Plant response rating, Blackgrass: 85
[11]; [17]
  Plant response rating, Blackgrass: 95
[11]; [18]
  Plant response rating, Blackgrass: 98
[12]; postemergence, 0-100 scale
  Bromegrass, Downy plant response rating: 5
[12]; [13]
  Plant response rating, Bromegrass, Downy: 10
[12]; [14]
  Plant response rating, Bromegrass, Downy: 45
[12]; [15]
  Plant response rating, Bromegrass, Downy: 60
[12]; [16]
  Plant response rating, Bromegrass, Downy: 0
[12]; [17]
  Plant response rating, Bromegrass, Downy: 0
[12]; [18]
  Plant response rating, Bromegrass, Downy: 75
[12]; Preemergence, scale 0 to 100
  Bromegrass, Downy plant response rating: 0
